Experimental data as given in patent publication US20100267561A1, “HERBICIDAL PYRIDAZINONE DERIVATIVES” (priority 2007, published 2010).

Assays:
Assay in all cases: Test B pre-/postemergence plant response
Type in all cases: in vivo
[1] = test system: common ragweed (Ambrosia elation); conditions: for Ragweed plant response rating: 8 g ai/ha
From the text: (§1) Seeds of plant species selected from blackgrass (Alopecurus myosuroides), downy bromegrass (Bromus tectorum), green foxtail (Setaria viridis), Italian ryegrass (Lolium multiflorum), wheat (Triticum aestivum), wild oat (Avena fatua), catchweed bedstraw (Galium aparine), bermudagrass (Cynodon dactylon), surinam grass (Brachiaria decumbens), cocklebur (Xanthium strumarium), corn (Zea mays), large crabgrass (Digitaria sanguinalis), woolly cupgrass (Eriochloa villosa), giant foxtail (Setaria faberii), goosegrass (Eleusine indica), johnsongrass (Sorghum halepense), kochia (Kochia scoparia), lambsquarters (Chenopodium album), morningglory (Ipomoea coccinea), eastern black (E.B.) nightshade (Solanum ptycanthum), yellow nutsedge (Cyperus esculentus), pigweed (Amaranthus retroflexus), common ragweed (Ambrosia elation), Russian thistle (Salsola iberica), soybean (Glycine max), common (oilseed) sunflower (Helianthus annuus), and velvetleaf (Abutilon theophrasti) were planted and treated preemergence with test chemicals formulated in a non-phytotoxic solvent mixture which included a surfactant.
(§2) At the same time, plants selected from these crop and weed species and also winter barley (Hordeum vulgare), canarygrass (Phalaris minor), chickweed (Stellaria media) and windgrass (Apera spica-venti) were treated with postemergence applications of some of the test chemicals formulated in the same manner. Plants ranged in height from 2 to 18 cm (1- to 4-leaf stage) for postemergence treatments.
(§3) Plant species in the flooded paddy test consisted of rice (Oryza sativa), umbrella sedge (Cyperus difformis), ducksalad (Heteranthera limosa) and barnyardgrass (Echinochloa crus-galli) grown to the 2-leaf stage for testing. At time of treatment, test pots were flooded to 3 cm above the soil surface, treated by application of test compounds directly to the paddy water, and then maintained at that water depth for the duration of the test. Treated plants and controls were maintained in a greenhouse for 13 to 15 days, after which time all species were compared to controls and visually evaluated. Plant response ratings, summarized in Table B, are based on a scale of 0 to 100 where 0 is no effect and 100 is complete control. A dash (-) response means no test result.

[2] = test system: catchweed bedstraw (Galium aparine); conditions: Preemergence
From the text: as §1, §2, §3

[3] = test system: giant foxtail (Setaria faberii); conditions: for Foxtail, Giant plant response rating: 8 g ai/ha
From the text: as §1, §2, §3

[4] = test system: lambsquarters (Chenopodium album); conditions: for Lambsquarters plant response rating: 8 g ai/ha
From the text: as §1, §2, §3

[5] = test system: downy bromegrass (Bromus tectorum); conditions: for Bromegrass, Downy plant response rating: 8 g ai/ha
From the text: as §1, §2, §3

wild oat (Avena fatua) = conditions: for Oat, Wild plant response rating: 8 g ai/ha
From the text: as §1, §2, §3

[6] = test system: pigweed (Amaranthus retroflexus); conditions: for Pigweed plant response rating: 8 g ai/ha
From the text: as §1, §2, §3

[7] = test system: woolly cupgrass (Eriochloa villosa); conditions: for Cupgrass, Woolly plant response rating: 8 g ai/ha
From the text: as §1, §2, §3

[8] = test system: common (oilseed) sunflower (Helianthus annuus); conditions: Preemergence
From the text: as §1, §2, §3

[9] = test system: yellow nutsedge (Cyperus esculentus); conditions: for Nutsedge, Yellow plant response rating: 8 g ai/ha
From the text: as §1, §2, §3

[10] = test system: blackgrass (Alopecurus myosuroides); conditions: for Blackgrass plant response rating: 8 g ai/ha
From the text: as §1, §2, §3

corn (Zea mays) = conditions: for Corn plant response rating: 8 g ai/ha
From the text: as §1, §2, §3

[11] = test system: velvetleaf (Abutilon theophrasti); conditions: for Velvetleaf plant response rating: 8 g ai/ha
From the text: as §1, §2, §3

kochia (Kochia scoparia) = conditions: for Kochia plant response rating: 8 g ai/ha
From the text: as §1, §2, §3

[12] = Postemergence, 16 g ai/ha, scale 0 to 100
[13] = Postemergence, 31 g ai/ha, scale 0 to 100, 0 no effect, 100 complete control
[14] = Postemergence, 62 g ai/ha, scale 0 to 100, 0 no effect, 100 complete control
[15] = Preemergence, 16 g ai/ha, scale 0 to 100 (0 no effect, 100 complete control)
[16] = Preemergence, 31 g ai/ha, 0 to 100 scale, 0 no effect, 100 complete control
[17] = Preemergence, 62 g ai/ha, scale 0 to 100
[18] = 16 g ai/ha, scale 0 to 100 (0 no effect, 100 complete control)
[19] = 31 g ai/ha, 0 to 100 scale, 0 no effect, 100 complete control

Cc1cc(-c2ccc(Cl)cc2)nn1-c1c(OS(=O)(=O)c2ccccc2)cnn(C)c1=O [Compound 35]
Ragweed plant response rating ([1]; postemergence, 0-100 scale): 0 | Plant response rating, Ragweed [1, 12]: 0 | Plant response rating, Ragweed [1, 13]: 0 | Plant response rating, Ragweed [1, 14]: 0 | Plant response rating, Ragweed [1, 15]: 0 | Plant response rating, Ragweed [1, 16]: 0 | Plant response rating, Ragweed [1, 17]: 0 | Ragweed plant response rating ([1]; Preemergence, scale 0 to 100): 0 | Plant response rating, Galium [2, 18]: 0 | Plant response rating, Galium [2, 19]: 0 | Plant response rating, Galium ([2]; 62 g ai/ha, scale 0 to 100): 20 | Galium plant response rating ([2]; 8 g ai/ha, scale 0 to 100): 0 | Foxtail, Giant plant response rating ([3]; postemergence, 0-100 scale): 90 | Plant response rating, Foxtail, Giant [3, 12]: 98 | Plant response rating, Foxtail, Giant [3, 13]: 100 | Plant response rating, Foxtail, Giant [3, 14]: 100 | Plant response rating, Foxtail, Giant [3, 15]: 100 | Plant response rating, Foxtail, Giant [3, 16]: 100 | Plant response rating, Foxtail, Giant [3, 17]: 100 | Foxtail, Giant plant response rating ([3]; Preemergence, scale 0 to 100): 100 | Lambsquarters plant response rating ([4]; postemergence, 0-100 scale): 0 | Plant response rating, Lambsquarters [4, 12]: 0 | Plant response rating, Lambsquarters [4, 13]: 0 | Plant response rating, Lambsquarters [4, 14]: 0 | Plant response rating, Lambsquarters [4, 15]: 0 | Plant response rating, Lambsquarters [4, 16]: 0 | Plant response rating, Lambsquarters [4, 17]: 0 | Lambsquarters plant response rating ([4]; Preemergence, scale 0 to 100): 0 | Bromegrass, Downy plant response rating ([5]; postemergence, 0-100 scale): 0 | Plant response rating, Bromegrass, Downy [5, 12]: 20 | Plant response rating, Bromegrass, Downy [5, 13]: 20 | Plant response rating, Bromegrass, Downy [5, 14]: 60 | Plant response rating, Bromegrass, Downy [5, 15]: 40 | Plant response rating, Bromegrass, Downy [5, 16]: 40 | Plant response rating, Bromegrass, Downy [5, 17]: 60 | Bromegrass, Downy plant response rating ([5]; Preemergence, scale 0 to 100): 40 | Oat, Wild plant response rating (wild oat (Avena fatua); postemergence, 0-100 scale): 50 | Plant response rating, Oat, Wild (wild oat (Avena fatua); [12]): 70 | Plant response rating, Oat, Wild (wild oat (Avena fatua); [13]): 85 | Plant response rating, Oat, Wild (wild oat (Avena fatua); [14]): 95 | Plant response rating, Oat, Wild (wild oat (Avena fatua); [16]): 80 | Plant response rating, Oat, Wild (wild oat (Avena fatua); [17]): 95 | Oat, Wild plant response rating (wild oat (Avena fatua); Preemergence, scale 0 to 100): 0 | Pigweed plant response rating ([6]; postemergence, 0-100 scale): 0 | Plant response rating, Pigweed [6, 12]: 0 | Plant response rating, Pigweed [6, 13]: 0 | Plant response rating, Pigweed [6, 14]: 0 | Plant response rating, Pigweed [6, 15]: 0 | Plant response rating, Pigweed [6, 16]: 0 | Plant response rating, Pigweed [6, 17]: 0 | Pigweed plant response rating ([6]; Preemergence, scale 0 to 100): 0 | Cupgrass, Woolly plant response rating ([7]; postemergence, 0-100 scale): 80 | Plant response rating, Cupgrass, Woolly [7, 12]: 95 | Plant response rating, Cupgrass, Woolly [7, 13]: 100 | Plant response rating, Cupgrass, Woolly [7, 14]: 100 | Plant response rating, Cupgrass, Woolly [7, 15]: 35 | Plant response rating, Cupgrass, Woolly [7, 16]: 100 | Plant response rating, Cupgrass, Woolly [7, 17]: 100 | Cupgrass, Woolly plant response rating ([7]; Preemergence, scale 0 to 100): 35 | Plant response rating, Sunflower [8, 18]: 0 | Plant response rating, Sunflower [8, 19]: 0 | Plant response rating, Sunflower ([8]; 62 g ai/ha, scale 0 to 100): 0 | Sunflower plant response rating ([8]; 8 g ai/ha, scale 0 to 100): 0 | Nutsedge, Yellow plant response rating ([9]; postemergence, 0-100 scale): 0 | Plant response rating, Nutsedge, Yellow [9, 12]: 0 | Plant response rating, Nutsedge, Yellow [9, 13]: 0 | Plant response rating, Nutsedge, Yellow [9, 14]: 0 | Plant response rating, Nutsedge, Yellow [9, 15]: 0 | Plant response rating, Nutsedge, Yellow [9, 16]: 0 | Plant response rating, Nutsedge, Yellow [9, 17]: 0 | Nutsedge, Yellow plant response rating ([9]; Preemergence, scale 0 to 100): 0 | Blackgrass plant response rating ([10]; postemergence, 0-100 scale): 0 | Plant response rating, Blackgrass [10, 12]: 60 | Plant response rating, Blackgrass [10, 13]: 70 | Plant response rating, Blackgrass [10, 14]: 90 | Plant response rating, Blackgrass [10, 15]: 85 | Plant response rating, Blackgrass [10, 16]: 100 | Plant response rating, Blackgrass [10, 17]: 100 | Blackgrass plant response rating ([10]; Preemergence, scale 0 to 100): 0 | Corn plant response rating (corn (Zea mays); postemergence, 0-100 scale): 40 | Plant response rating, Corn (corn (Zea mays); [12]): 90 | Plant response rating, Corn (corn (Zea mays); [13]): 100 | Plant response rating, Corn (corn (Zea mays); [14]): 100 | Plant response rating, Corn (corn (Zea mays); [15]): 40 | Plant response rating, Corn (corn (Zea mays); [16]): 55 | Plant response rating, Corn (corn (Zea mays); [17]): 90 | Corn plant response rating (corn (Zea mays); Preemergence, scale 0 to 100): 5 | Velvetleaf plant response rating ([11]; postemergence, 0-100 scale): 0 | Plant response rating, Velvetleaf [11, 12]: 0 | Plant response rating, Velvetleaf [11, 14]: 0 | Plant response rating, Velvetleaf [11, 15]: 0 | Plant response rating, Velvetleaf [11, 16]: 0 | Plant response rating, Velvetleaf [11, 17]: 0 | Velvetleaf plant response rating ([11]; Preemergence, scale 0 to 100): 0 | Kochia plant response rating (kochia (Kochia scoparia); postemergence, 0-100 scale): 0 | Plant response rating, Kochia (kochia (Kochia scoparia); [12]): 0 | Plant response rating, Kochia (kochia (Kochia scoparia); [13]): 0 | Plant response rating, Kochia (kochia (Kochia scoparia); [14]): 0 | Plant response rating, Kochia (kochia (Kochia scoparia); [15]): 0 | Plant response rating, Kochia (kochia (Kochia scoparia); [16]): 0 | Kochia plant response rating (kochia (Kochia scoparia); Preemergence, scale 0 to 100): 0
